Results: PubChem BioAssay (NCI)
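A five-concentration, 48-hour dose response in 96-well plates underlies each endpoint, interpolated linearly between surrounding concentrations. Here, GI50 denotes the concentration required for 50% inhibition of growth. TGI: concentration producing complete growth inhibition.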

Tests used:
Assay in all cases: inhibition of tumour cell growth, NCI panel, 48 h
RXF 393 renal = system: RXF 393 renal
OVCAR-3 ovarian = system: OVCAR-3 ovarian
EKVX NSCLC = system: EKVX NSCLC
PC-3 prostate = system: PC-3 prostate
OVCAR-5 ovarian = system: OVCAR-5 ovarian
M14 melanoma = system: M14 melanoma
SK-MEL-2 melanoma = system: SK-MEL-2 melanoma
TK-10 renal = system: TK-10 renal
SR leukemia = system: SR leukemia
HL-60(TB) leukemia = system: HL-60(TB) leukemia

## O=C(NN1C(=O)CSC12CCCC2)c1[nH]c2ccc(Br)cc2c1-c1ccccc1
RXF 393 renal
  GI50: 31.2 µM
  TGI: > 100 µM
OVCAR-3 ovarian
  GI50: 18.8 µM
  TGI: 56.7 µM
EKVX NSCLC
  GI50: > 100 µM
  TGI: > 100 µM
PC-3 prostate
  GI50: 38.6 µM
  TGI: > 100 µM
OVCAR-5 ovarian
  GI50: > 100 µM
  TGI: > 100 µM
M14 melanoma
  GI50: 49.1 µM
  TGI: > 100 µM
SK-MEL-2 melanoma
  GI50: 69 µM
  TGI: > 100 µM
TK-10 renal
  GI50: 80.9 µM
  TGI: > 100 µM

## O=C(Nc1ccc(Cl)c(Cl)c1)O/N=C\c1c(Cl)ccc([N+](=O)[O-])c1Cl
OVCAR-3 ovarian
  GI50: 1.31 µM
  TGI: 2.76 µM
SR leukemia
  GI50: 0.878 µM
  TGI: 5.04 µM
PC-3 prostate
  GI50: 1.58 µM
  TGI: 3.74 µM
OVCAR-5 ovarian
  GI50: 1.86 µM
  TGI: 3.84 µM
M14 melanoma
  GI50: 2.44 µM
  TGI: 8.18 µM
HL-60(TB) leukemia
  GI50: 1.18 µM
  TGI: 3.13 µM
SK-MEL-2 melanoma
  GI50: 2.34 µM
  TGI: 4.98 µM

## COC(=O)C1=C(c2cc(OC)c(OC)c(OC)c2)OC(c2ccc(OC)c(OC)c2)C1 (stereo not given)
RXF 393 renal
  TGI: > 100 µM
OVCAR-3 ovarian
  TGI: > 100 µM
SR leukemia
  TGI: > 100 µM
EKVX NSCLC
  TGI: > 100 µM
OVCAR-5 ovarian
  TGI: > 100 µM
M14 melanoma
  TGI: > 100 µM
HL-60(TB) leukemia
  TGI: > 100 µM
SK-MEL-2 melanoma
  TGI: > 100 µM
TK-10 renal
  TGI: > 100 µM

## O=CC1CCCc2ccccc21 (stereo not given)
RXF 393 renal
  TGI: > 100 µM
OVCAR-3 ovarian
  TGI: > 100 µM
SR leukemia
  TGI: > 100 µM
EKVX NSCLC
  TGI: > 100 µM
OVCAR-5 ovarian
  TGI: > 100 µM
M14 melanoma
  TGI: > 100 µM
HL-60(TB) leukemia
  TGI: > 100 µM
SK-MEL-2 melanoma
  TGI: > 100 µM
TK-10 renal
  TGI: > 100 µM

## COc1cc(C2C(Cl)C(=O)N2NC(=O)c2ccc(N)cc2)ccc1O (stereo not given)
OVCAR-3 ovarian
  TGI: 39 µM
EKVX NSCLC
  TGI: > 100 µM
OVCAR-5 ovarian
  TGI: > 100 µM
M14 melanoma
  TGI: > 100 µM
HL-60(TB) leukemia
  TGI: > 100 µM
SK-MEL-2 melanoma
  TGI: > 100 µM
TK-10 renal
  TGI: > 100 µM

## COc1ccc2c(c1)C(=O)c1c-2c(N(C)C)nc2ccccc12
RXF 393 renal
  GI50: > 100 µM
  TGI: > 100 µM
EKVX NSCLC
  GI50: > 100 µM
  TGI: > 100 µM
PC-3 prostate
  GI50: > 100 µM
  TGI: > 100 µM
OVCAR-5 ovarian
  GI50: > 100 µM
  TGI: > 100 µM
M14 melanoma
  GI50: > 100 µM
  TGI: > 100 µM
HL-60(TB) leukemia
  GI50: > 100 µM
  TGI: > 100 µM
SK-MEL-2 melanoma
  GI50: > 100 µM
  TGI: > 100 µM
TK-10 renal
  GI50: 88.9 µM
  TGI: > 100 µM

## COc1ccc(C(C#N)Cc2cc(OC)c(OC)c(OC)c2)cc1 (stereo not given)
RXF 393 renal
  TGI: 45.2 µM
OVCAR-3 ovarian
  TGI: > 100 µM
EKVX NSCLC
  TGI: > 100 µM
OVCAR-5 ovarian
  TGI: > 100 µM
M14 melanoma
  TGI: > 100 µM
HL-60(TB) leukemia
  TGI: 64.3 µM
TK-10 renal
  TGI: > 100 µM

## Cc1ccccc1NC(=O)C(=O)CC(=O)c1c(C)n([O-])c2ccccc2[n+]1=O
RXF 393 renal
  TGI: > 100 µM
OVCAR-3 ovarian
  TGI: > 100 µM
SR leukemia
  TGI: 0.0875 µM
EKVX NSCLC
  TGI: > 100 µM
OVCAR-5 ovarian
  TGI: > 100 µM
M14 melanoma
  TGI: > 100 µM
SK-MEL-2 melanoma
  TGI: > 100 µM

## O=c1c2ccccc2nc(-c2ccccc2)n1NC1OC(CO)C(O)C(O)C1O (stereo not given)
OVCAR-3 ovarian
  TGI: > 100 µM
EKVX NSCLC
  TGI: > 100 µM
OVCAR-5 ovarian
  TGI: > 100 µM
M14 melanoma
  TGI: > 100 µM
HL-60(TB) leukemia
  TGI: > 100 µM
SK-MEL-2 melanoma
  TGI: > 100 µM
TK-10 renal
  TGI: > 100 µM

## Cc1ccc(C)c(NC(=O)CC/C(=N\NC(=O)c2c(O)ccc3ccccc23)C(C)C(=O)c2ccc(O)cc2)c1 (stereo not given)
RXF 393 renal
  TGI: > 100 µM
OVCAR-3 ovarian
  TGI: 89.2 µM
SR leukemia
  TGI: 90.3 µM
OVCAR-5 ovarian
  TGI: > 100 µM
M14 melanoma
  TGI: 41.4 µM
HL-60(TB) leukemia
  TGI: > 100 µM
SK-MEL-2 melanoma
  TGI: > 100 µM
TK-10 renal
  TGI: > 100 µM
